This is an account of results in patent US7771711B2, “Sphingolipids' polyalkylamines conjugates” (Yissum Research Development Company of The Hebrew …, priority 2003, dated 2010).

Counter-ions that a name gives are not always drawn.

The conditions of data set [1]: DPH fluorescence increase upon aggregation.
Experimental: DPH dissolved in fetrahydrofuran was added at concentration of 0.25 ml %, to a range of concentrations of lipid dispersions and the fluorescence was recorded using 360 nm excitation and 430 nm emission on Perkin Elmer LS-50B. Then the fluorescence was plotted as function of lipid concentrations, and CMC point was detected as change of the slope of the curve by intersection of two straight lines above or below the CMC region.
Data set [2] is described as follows: Assembly size by dynamic light scattering (ALV back scattering). Type of data set: physicochemical.
A short description of data set [3]: Electrostatics from dissociation curve of bilayer-incorporated hydroxycoumarin probes (HCPE, C17HC). It is filed as physicochemical. As to conditions: for pKa C17HC: apparent pKa of hydroxycoumarin probe C17HC incorporated in the assemblies; for Surface potential C17HC / Surface potential HCPE: from shift of pKa of HC, Boltzmann equation; for Surface potential C17HC / Surface pH C17HC: probe C17HC; for pKa HCPE: apparent pKa of hydroxycoumarin probe HCPE incorporated in the assemblies; for Surface potential HCPE / Surface pH HCPE: probe HCPE. The procedure:
The fluorescence excitation of the fluorophore 7-hydroxycoumarin (HC) moieties at 405 nm for HCPE and 380 nm for C17HC reflects the amount of the ionized species, while the excitation at 370 nm for HCPE and 330 nm for C17HC is the pH-independent isosbestic point, reflects the total amount of probe in the liposomes and micelles. Fluorescence emission was determined at 450 nm for all the above excitations. These two ratios (405/370 for HCPE, and 380/330 for C17HC) give the degree of ionization of HC fluoropore. The titration curve of HC, which is generated by plotting fluorescence excitation intensity ratio I405/I370 for HCPE and I380/I330 for C17HC at broad range of bulk pH, enables to calculate the apparent pKa of HC in HCPE and C17HC, respectively. The pKa of HC in the liposomal bilayer and/or in the micelles is calculated by fitting the above titration curve to the modified Henderson -Hasselbach equation, as described before [Zuidam & Barenholz (1997) ibid.]. The surface potential is then determined from the shift of pKa of HC that dramatically occurs in the strongly basic environment of cationic bilayer, according to the Boltzmann equation [Zuidam & Barenholz (1997) ibid.]

Data set [4] in a line: ζ-potential by Zetasizer in 10 mM NaCl. It is filed as physicochemical. As to conditions: 25° C., 10 mM NaCl (pH 6.7). As to the method:
Liposomes' and micelles' ζ-potential was measured at 25° C. by the mobility of the particles in the applied electrical field using a Zetasizer 3000 HAS, Malvern Instruments, Malvern, UK, by diluting an aliquot of 40 μL in 20 mL of 10 mM NaCl (pH 6.7) and passing the solutions before measurement through a 0.2-μm syringe filter (Minisart, Sartorius, Germany). ζ-potential reflects the electrical potential at the plane of sheer (further away from the actual surface), which is sensed by the HCPE and C17HC.

The conditions of data set [5]: base.
Data set [6] is described as follows: Level of hydration by Laurdan excitation general polarization. Type of data set: physicochemical. As to conditions: 20 mM HEPES pH 7.4, 25° C. As to the method: Hydration level of the different CCS-based lipid assemblies before and after the addition of plasmid DNA was determined by monitoring changes of “Laurdan excitation general polarization” according to which the higher the value obtained, the lower is the level of hydration.
6-Dodecanoyl-2-dimethylaminonaphthalene (Laurdan), purchased from Lambda (Graz, Austria), was used to follow changes in hydration level of the liposome bilayer. The naphthalene fluorophore of this probe is located at the hydrophilichydrophobic interface of the bilayer, and its 12-carbon chain is aligned parallel to the bilayer lipid acyl chains. When associated with lipids, Laurdan excitation and emission spectra depend strongly on the phase of the lipid. […] The lipid phases and level of hydration can be described by a Laurdan steady-state fluorescence parameter referred to as generalized polarization (GP) [Hirsch-Lerner D, Barenholz Y. Biochim Biophys Acta. […] Laurdan GP fluorescence spectra in lipid vesicles are dependent on the number of water molecules around the fluorescent moiety of Laurdan. Excitation GP was calculated according to the expression: GP340=(I440−I490)/(I440+I490) (1) where I440 and I490 are the intensities of fluorescence emission at wavelengths 440 and 490 nm and the excitation wavelength 340 nm. […]

Data set [7] can be described thus: Follow up (storage) assays of CCS lipid assemblies in HEPES pH 7.4 at 4° C. It is filed as physicochemical. The procedure:
FIGS. 3A-3D show the results of the different follow up assays (follow up for 23 days). The follow up assay were based on TNBS test, which is a quantitative assay based on color reaction of TNBS reagent with primary amines.
The level of primary amines was determined with storage time in TNBS binding and described as % of freshly hydrated preparation. The change in Zeta potential, the change in the HCPE fluorescence 450 nm/370 mnm excitation ratio, and the change in size of the lipid assemblies (liposomes or micelles) formed was determined.
At 21 day, there were 6 time points of storage, which were assayed simultaneously for the following parameters: […]

Where [8] appears, read: listed as CCS Acetate (micelles).
[9] abbreviates: listed as CCS Chloride (micelles).

Turning to `CCCCCCCCCCCCC/C=C/[C@@H](O)[C@H](COC(=O)NCCCNCCCCNCCCN)NC(=O)CCCCCCCCCCCCCCC` [CCS Acetate salt, N-palmitoyl D-erythro sphingosyl-1-carbamoyl spermine], the “Critical Micelle Concentration (CMC)” value in data set [1] turned out to be 5 µM. The “Assembly size, diameter (mass-weight)” value in data set [2] is “micelles 6 nm;”. Besides, in data set [3] (setting [8]), the “pKa C17HC” value is 4.75, the “Surface potential C17HC” value amounted to 245.8 mV and the “Surface pH C17HC” value worked out at 11.5. In data set [4] (setting [8]), this molecule came in with a ζ-potential of 40.

`CCCCCCCCCCCCC/C=C/[C@@H](O)[C@H](COC(=O)NCCCNCCCCNCCCN)NC(=O)CCCCCCCCCCCCCCC` [CCS Chloride salt, N-palmitoyl D-erythro sphingosyl-1-carbamoyl spermine]: the “Critical Micelle Concentration (CMC)” value in data set [1] stood at 5 µM. The “Assembly size, diameter (mass-weight)” value in data set [2] was “micelles 25 nm;”. In data set [3] (setting [9]), the “pKa C17HC” value is 5.61, the “pKa HCPE” value is given as 6.56, the “Surface potential C17HC” value stood at 195.4 mV and the “Surface potential HCPE” value stood at 242.3 mV. In data set [3] (setting [9]), the “Surface pH C17HC” value is reported as 10.64 and the “Surface pH HCPE” value turned out to be 11.54. The molecule further yielded a ζ-potential in data set [4] (setting [9]) of 46.5.

For the molecule `CCCCCCCCCCCCC/C=C/[C@@H](O)[C@H](COC(=O)NCCCNCCCCNCCCN)NC(=O)CCCCCCCCCCCCCCC` [CCS non-protonated, N-palmitoyl D-erythro sphingosyl-1-carbamoyl spermine], in data set [3], the “pKa HCPE” value was 7.23, the “Surface potential HCPE” value is given as 203.06 mV and the “Surface pH HCPE” value is recorded as 10.87. This molecule registered a ζ-potential in data set [4] of 34.

On to `CCCCCCCCCCCCC/C=C/[C@@H](O)[C@H](COC(=O)NCCCNCCCCNCCCN)NC(=O)CCCCCCCCCCCCCCC` [CCS, N-palmitoyl D-erythro sphingosyl-1-carbamoyl spermine], for which the Solubility in ethanol entry in data set [5] is reported as “exhibited”. Moreover, in data set [6], the “Hydration state before addition of DNA (Laurdan GP)” value is “high hydration state”. The “Hydration state upon addition of DNA (Laurdan GP)” value in data set [6] (formation of lipoplexes) is listed as “become dehydrated”. Besides, the “Zeta potential during storage” value in data set [7] (HEPES buffer pH 7.4, 4° C., 23 days) is “no substantial change”. In data set [7] (HEPES pH 7.4, 4° C.), the “Change in time in diameter of lipid assemblies during storage” value is reported as “remained relatively small” and the “Period of chemical stability of dispersions in aqueous phase” value is given as “at least 23 days”. Further, the “Surface pH and electrical surface potential over storage (HCPE 405/370 excitation ratio)” value in data set [7] (HEPES pH 7.4, 4° C., entire period of storage) is reported as “unchanged”. In addition, the “Level of primary amines upon storage (TNBS binding)” value in data set [7] (HEPES pH 7.4, 4° C., follow up for 23 days) is “no substantial change”.
